According to ChEMBL document CHEMBL4627246, “Pyroglutamide-Based P2X7 Receptor Antagonists Targeting Inflammatory Bowel Disease” (J Med Chem, 2020):

What was measured:
Format in all cases: cell-based
EKVX = assay: Cytotoxicity against human EKVX cells assessed as effect on cell growth at 10 uM incubated for 48 hrs by sulforhodamine B assay
HL-60(TB) = assay: Cytotoxicity against human HL-60(TB) cells assessed as effect on cell growth at 10 uM incubated for 48 hrs by sulforhodamine B assay
NCI-H522 = assay: Cytotoxicity against human NCI-H522 cells assessed as effect on cell growth at 10 uM incubated for 48 hrs by sulforhodamine B assay; conditions: nci-h522, 48 h
HCC 2998 = assay: Cytotoxicity against human HCC2998 cells assessed as effect on cell growth at 10 uM incubated for 48 hrs by sulforhodamine B assay; conditions: hcc 2998, 48 h
HCT-15 = assay: Cytotoxicity against human HCT15 cells assessed as effect on cell growth at 10 uM incubated for 48 hrs by sulforhodamine B assay; conditions: hct-15, 48 h
SNB-19 = assay: Cytotoxicity against human SNB19 cells assessed as effect on cell growth at 10 uM incubated for 48 hrs by sulforhodamine B assay; conditions: snb-19, 48 h
SNB-75 = assay: Cytotoxicity against human SNB75 cells assessed as effect on cell growth at 10 uM incubated for 48 hrs by sulforhodamine B assay; conditions: snb-75, 48 h
SK-MEL-2 = assay: Cytotoxicity against human SK-MEL-2 cells assessed as effect on cell growth at 10 uM incubated for 48 hrs by sulforhodamine B assay; conditions: sk-mel-2, 48 h
SK-MEL-5 = assay: Cytotoxicity against human SK-MEL-5 cells assessed as effect on cell growth at 10 uM incubated for 48 hrs by sulforhodamine B assay; conditions: sk-mel-5, 48 h
UACC-62 = assay: Cytotoxicity against human UACC62 cells assessed as effect on cell growth at 10 uM incubated for 48 hrs by sulforhodamine B assay; conditions: uacc-62, 48 h
IGROV-1 = assay: Cytotoxicity against human IGROV1 cells assessed as effect on cell growth at 10 uM incubated for 48 hrs by sulforhodamine B assay; conditions: igrov-1, 48 h
OVCAR-5 = assay: Cytotoxicity against human OVCAR5 cells assessed as effect on cell growth at 10 uM incubated for 48 hrs by sulforhodamine B assay; conditions: ovcar-5, 48 h
786-0 = assay: Cytotoxicity against human 786-0 cells assessed as effect on cell growth at 10 uM incubated for 48 hrs by sulforhodamine B assay; conditions: 786-0, 48 h
ACHN = assay: Cytotoxicity against human ACHN cells assessed as effect on cell growth at 10 uM incubated for 48 hrs by sulforhodamine B assay
RXF 393 = assay: Cytotoxicity against human RXF393 cells assessed as effect on cell growth at 10 uM incubated for 48 hrs by sulforhodamine B assay; conditions: rxf 393, 48 h
UO-31 = assay: Cytotoxicity against human UO31 cells assessed as effect on cell growth at 10 uM incubated for 48 hrs by sulforhodamine B assay; conditions: uo-31, 48 h
DU-145 = assay: Cytotoxicity against human DU145 cells assessed as effect on cell growth at 10 uM incubated for 48 hrs by sulforhodamine B assay; conditions: du-145, 48 h
MCF7 = assay: Cytotoxicity against human MCF7 cells assessed as effect on cell growth at 10 uM incubated for 48 hrs by sulforhodamine B assay; conditions: mcf7, 48 h
MDA-MB-231 = assay: Cytotoxicity against human MDA-MB-231 cells assessed as effect on cell growth at 10 uM incubated for 48 hrs by sulforhodamine B assay; conditions: mda-mb-231, 48 h
T47D = assay: Cytotoxicity against human T47D cells assessed as effect on cell growth at 10 uM incubated for 48 hrs by sulforhodamine B assay

Measured: Activity

O=C(NCc1ccccc1Cl)[C@@H]1CCC(=O)N1c1ccccc1
Non-Toxic: all assays above

O=C1CCCC(C(=O)NCc2ccc(Cl)cc2Cl)N1 (stereo not given)
Non-Toxic: all assays above

CN(C)/C=C1\C[C@H]2C(=O)N(Cc3ccc(Cl)cc3Cl)C(N(C)C)N2C1=O (stereo not given in full)
Non-Toxic: all assays above

O=C(Nc1ccc(Cl)cc1Cl)[C@@H]1CCC(=O)N1Cc1ccccc1Cl
Non-Toxic: all assays above

O=C1N[C@H](C(=O)NCc2ccc(Cl)cc2Cl)C/C1=N\O (stereo in doubt)
Non-Toxic: all assays above

O=C(NCc1ccc(Cl)cc1Cl)[C@@H]1CCC(=O)N1c1nccs1
Non-Toxic: all assays above

O=C(NCc1ccc(Cl)cc1Cl)[C@@H]1CCC(=O)N1c1ccc(Cl)cc1
Non-Toxic: all assays above

O=C(NCc1ccccc1Cl)[C@@H]1CCC(=O)N1Cc1ccc(Cl)cc1
Non-Toxic: all assays above

O=C(NCc1ccc(Cl)cc1Cl)[C@@H]1CCC(=O)N1c1ccsc1
Non-Toxic: all assays above

O=C(NCCc1ccccc1)[C@@H]1CCC(=O)N1Cc1ccc(Cl)cc1Cl
Non-Toxic: all assays above

COc1ccc(NC(=O)[C@@H]2CCC(=O)N2)cc1OC
Non-Toxic: all assays above

O=C(NCc1ccc(Cl)cc1Cl)c1ccccn1
Non-Toxic: all assays above

COC(=O)[C@@H]1C/C(=C\NCc2ccc(Cl)cc2Cl)C(=O)N1C(=O)OC
Non-Toxic: all assays above

COc1ccc(CNC(=O)[C@@H]2CCC(=O)N2Cc2ccc(Cl)cc2Cl)c(OC)c1
Non-Toxic: all assays above
